How the values were obtained:
[1] = system: IGROV-1; assay: Cytotoxicity against human IGROV1 cells assessed as growth at 10^-5 M relative to control
[2] = system: MDA-MB-435; assay: Cytotoxicity against human MDA-MB-435 cells assessed as growth at 10^-5 M relative to control
[3] = system: SR; assay: Cytotoxicity against human SR cells assessed as growth at 10^-5 M relative to control
[4] = Cytotoxicity against MDCK cells assessed as cell viability after 48 hrs by MTT assay; format: cell-based, Canis lupus familiaris; settings: dog, read-out: CTD50
[5] = system: MOLT-4; assay: Cytotoxicity against human MOLT4 cells assessed as growth at 10^-5 M relative to control
[6] = system: NCI-H23; assay: Cytotoxicity against human NCI-H23 cells assessed as growth at 10^-5 M relative to control
[7] = system: M14; assay: Cytotoxicity against human M14 cells assessed as growth at 10^-5 M relative to control
[8] = system: ACHN; assay: Cytotoxicity against human ACHN cells assessed as growth at 10^-5 M relative to control
[9] = system: NCI/ADR-RES; assay: Cytotoxicity against human NCI/ADR-RES cells assessed as growth at 10^-5 M relative to control
[10] = system: SNB-19; assay: Cytotoxicity against human SNB19 cells assessed as growth at 10^-5 M relative to control
[11] = system: T47D; assay: Cytotoxicity against human T47D cells assessed as growth at 10^-5 M relative to control
[12] = system: SNB-75; assay: Cytotoxicity against human SNB75 cells assessed as growth at 10^-5 M relative to control
[13] = system: OVCAR-5; assay: Cytotoxicity against human OVCAR5 cells assessed as growth at 10^-5 M relative to control
[14] = system: CCRF-CEM; assay: Cytotoxicity against human CCRF-CEM cells assessed as growth at 10^-5 M relative to control
[15] = system: BT-549; assay: Cytotoxicity against human BT549 cells assessed as growth at 10^-5 M relative to control
[16] = system: KM12; assay: Cytotoxicity against human KM12 cells assessed as growth at 10^-5 M relative to control
[17] = system: Influenza A virus; assay: Antiviral activity against Influenza A virus (A/Puerto Rico/8/1934(H1N1)) infected in MDCK cells assessed as decrease in virus titer after 48 hrs by MTT assay; format: functional, organism-based
[18] = system: COLO 205; assay: Cytotoxicity against human COLO205 cells assessed as growth at 10^-5 M relative to control
[19] = system: UACC-62; assay: Cytotoxicity against human UACC62 cells assessed as growth at 10^-5 M relative to control
[20] = system: HT-29; assay: Cytotoxicity against human HT-29 cells assessed as growth at 10^-5 M relative to control
[21] = system: HCT-116; assay: Cytotoxicity against human HCT116 cells assessed as growth at 10^-5 M relative to control
[22] = system: HOP-62; assay: Cytotoxicity against human HOP62 cells assessed as growth at 10^-5 M relative to control
[23] = system: SK-MEL-5; assay: Cytotoxicity against human SK-MEL-5 cells assessed as growth at 10^-5 M relative to control
[24] = system: SF-539; assay: Cytotoxicity against human SF539 cells assessed as growth at 10^-5 M relative to control
[25] = system: HOP-92; assay: Cytotoxicity against human HOP92 cells assessed as growth at 10^-5 M relative to control
[26] = system: SK-OV-3; assay: Cytotoxicity against human SKOV3 cells assessed as growth at 10^-5 M relative to control
[27] = system: RPMI-8226; assay: Cytotoxicity against human RPMI8226 cells assessed as growth at 10^-5 M relative to control
[28] = system: OVCAR-3; assay: Cytotoxicity against human OVCAR3 cells assessed as growth at 10^-5 M relative to control
[29] = Selectivity index, ratio of CTD50 for MDCK cells to EC50 for Influenza A virus (A/Puerto Rico/8/1934(H1N1)); format: toxicity, cell-based; settings: dog
[30] = system: MDA-MB-468; assay: Cytotoxicity against human MDA-MB-468 cells assessed as growth at 10^-5 M relative to control
[31] = system: SN12C; assay: Cytotoxicity against human SN12C cells assessed as growth at 10^-5 M relative to control
[32] = system: A498; assay: Cytotoxicity against human A498 cells assessed as growth at 10^-5 M relative to control
[33] = system: UO-31; assay: Cytotoxicity against human UO31 cells assessed as growth at 10^-5 M relative to control
[34] = system: LOX IMVI; assay: Cytotoxicity against human LOXIMVI cells assessed as growth at 10^-5 M relative to control
[35] = system: U-251; assay: Cytotoxicity against human U251 cells assessed as growth at 10^-5 M relative to control
[36] = system: OVCAR-8; assay: Cytotoxicity against human OVCAR8 cells assessed as growth at 10^-5 M relative to control
[37] = Cytotoxicity against African green monkey Vero cells assessed as cell viability after 72 hrs by MTT assay; format: cell-based; settings: chlorocebus sabaeus, read-out: CTD50
[38] = system: NCI-H460; assay: Cytotoxicity against human NCI-H460 cells assessed as growth at 10^-5 M relative to control
[39] = system: SW-620; assay: Cytotoxicity against human SW620 cells assessed as growth at 10^-5 M relative to control
[40] = system: 786-0; assay: Cytotoxicity against human 786-0 cells assessed as growth at 10^-5 M relative to control

Row | Structure (SMILES) | growth, % of control at 10 µM [1] [%] | growth, % of control at 10 µM [2] [%] | growth, % of control at 10 µM [3] [%] | CC50 at 48 h [4] [µM] | growth, % of control at 10 µM [5] [%] | growth, % of control at 10 µM [6] [%] | growth, % of control at 10 µM [7] [%] | growth, % of control at 10 µM [8] [%] | growth, % of control at 10 µM [9] [%] | growth, % of control at 10 µM [10] [%] | growth, % of control at 10 µM [11] [%] | growth, % of control at 10 µM [12] [%] | growth, % of control at 10 µM [13] [%] | growth, % of control at 10 µM [14] [%] | growth, % of control at 10 µM [15] [%] | growth, % of control at 10 µM [16] [%] | EC50 [17] [µM] | growth, % of control at 10 µM [18] [%] | growth, % of control at 10 µM [19] [%] | growth, % of control at 10 µM [20] [%] | other results
1 | OC[C@H]1[C@@H]2C[C@H](n3cnc4c(NCCc5ccccc5)ncnc43)[C@H]1C[C@@H]2Cl | 105 | 99.7 | 84.1 | 143 | 83.3 | 93.2 | 101 | 97.8 | 88.2 | 107 | 86.8 | 106 | 104 | 87.6 | 96.1 | 102 | 15 | 99.3 | 93.1 | 95.3 | growth, % of control at 10 µM [21]: 101%; growth, % of control at 10 µM [22]: 94.2%; growth, % of control at 10 µM [23]: 73.9%; growth, % of control at 10 µM [24]: 98.2%; growth, % of control at 10 µM [25]: 92.4%; growth, % of control at 10 µM [26]: 103%; growth, % of control at 10 µM [27]: 87.9%; growth, % of control at 10 µM [28]: 110%; selectivity ratio [29]: 10; growth, % of control at 10 µM [30]: 89.4%; growth, % of control at 10 µM [31]: 99.9%; growth, % of control at 10 µM [32]: 95.5%; growth, % of control at 10 µM [33]: 73.8%; growth, % of control at 10 µM [34]: 92.7%; growth, % of control at 10 µM [35]: 103%; growth, % of control at 10 µM [36]: 95.7%; CC50 at 72 h [37]: 14 µM; growth, % of control at 10 µM [38]: 108%; growth, % of control at 10 µM [39]: 99.7%; growth, % of control at 10 µM [40]: 97%
2 | COc1ccc(CCNc2ncnc3c2ncn3[C@H]2C[C@H]3[C@H](CO)[C@@H]2C[C@@H]3Cl)cc1 | 98.7 | 114 | 86.7 | 350 | 103 | 102 | 98.3 | 97.7 | 86.5 | 107 | 66.1 | 92.8 | 97.7 | 108 | 86.8 | 97 | 16 | 113 | 99.6 | 87.9 | growth, % of control at 10 µM [21]: 100%; growth, % of control at 10 µM [22]: 107%; growth, % of control at 10 µM [23]: 87%; growth, % of control at 10 µM [24]: 95.1%; growth, % of control at 10 µM [25]: 114%; growth, % of control at 10 µM [26]: 106%; growth, % of control at 10 µM [27]: 82.5%; growth, % of control at 10 µM [28]: 111%; selectivity ratio [29]: 22; growth, % of control at 10 µM [30]: 101%; growth, % of control at 10 µM [31]: 102%; growth, % of control at 10 µM [32]: 99.9%; growth, % of control at 10 µM [33]: 81%; growth, % of control at 10 µM [34]: 96.7%; growth, % of control at 10 µM [35]: 105%; growth, % of control at 10 µM [36]: 101%; CC50 at 72 h [37]: 14 µM; growth, % of control at 10 µM [38]: 106%; growth, % of control at 10 µM [39]: 108%; growth, % of control at 10 µM [40]: 101%
3 | CCOc1ncnc2c1ncn2[C@H]1C[C@H]2[C@H](CO)[C@@H]1C[C@@H]2Cl | 95.4 | 106 | 97.5 | > 1020 | 111 | 87.9 | 111 | 99 | 90.8 | 115 | 103 | 83.1 | 92.5 | 129 | 106 | 101 | 225 | 119 | 104 | 96.5 | growth, % of control at 10 µM [21]: 105%; growth, % of control at 10 µM [22]: 106%; growth, % of control at 10 µM [23]: 100%; growth, % of control at 10 µM [24]: 102%; growth, % of control at 10 µM [25]: 124%; growth, % of control at 10 µM [26]: 128%; growth, % of control at 10 µM [27]: 121%; growth, % of control at 10 µM [28]: 111%; selectivity ratio [29]: > 5; growth, % of control at 10 µM [30]: 98.6%; growth, % of control at 10 µM [31]: 108%; growth, % of control at 10 µM [32]: 88.8%; growth, % of control at 10 µM [33]: 88.1%; growth, % of control at 10 µM [34]: 90.9%; growth, % of control at 10 µM [35]: 102%; growth, % of control at 10 µM [36]: 106%; CC50 at 72 h [37]: 208 µM; growth, % of control at 10 µM [38]: 108%; growth, % of control at 10 µM [39]: 109%; growth, % of control at 10 µM [40]: 108%

From ChEMBL document CHEMBL3611975, “New carbocyclic N(6)-substituted adenine and pyrimidine nucleoside analogues with a bicyclo[2.2.1]heptane fragment as sugar moiety; synthesis, antiviral, anticancer activity and X-ray crystallography” (Bioorg Med Chem, 2015)
